Source: patent US20240115649A1, “CASPASE INHIBITION TO ENHANCE REGENERATION AND REPAIR AFTER SKIN OR GUT INJURY AND TO TREAT BACTERIAL OR VIRAL INFECTIONS” (The Johns Hopkins University, priority 2020, published 2024)

What was measured:
S. pyogenes strain Xen20 = assay type: cell-based; settings: 10, 100 and 1,000 μg/mL; vs vehicle
[1] = tested on: P. aeruginosa strain Xen41; assay: Bacterial growth curve kinetics, P. aeruginosa broth cultures; assay type: cell-based; settings: 10, 100 and 1,000 μg/mL; vs vehicle
pMLKL, MLKL, ICAD = assay: Western blot analysis of infected skin; assay type: in vivo, mice
Staphopain A (sspP) = biological target: T1, Staphopain A (sspP) (Staphylococcus aureus, UniProt P81297); assay: Protease activity assays and protein blot, Staphopain A; assay type: biochemical, S. aureus
T1 construct: purchased CUSABIO

TNF = assay: Serum TNF levels after S. aureus skin inoculation; assay type: in vivo, mice; settings: days 1 and 3; vs untreated
Protocol: (§1) Serum IL-1β and TNF levels. Serum IL-1β and TNF protein levels (pg/mL) were measured from serum collected on days 1 and 3 after S. aureus skin inoculation±Q-VD-OPH treatment using Bio-Plex protein assays and normalized to total protein, according to the manufacturer's recommendations (Bio-Rad).

Streptopain (speB) = Streptopain (speB) (Streptococcus pyogenes, UniProt P0C0J0); assay type: biochemical, S. pyogenes
[2] = tested on: mouse epithelial keratinocytes; assay: Mouse epithelial keratinocyte culture (qRT-PCR, immunoblot)
[3] = tested on: S. aureus USA300 LAC::lux; assay: Bacterial growth curve kinetics, S. aureus broth cultures; assay type: cell-based; settings: 10, 100 and 1,000 μg/mL; 10 hours; vs vehicle
neutrophils = assay: Flow cytometry of skin of Q-VD-OPh-treated mice; assay type: in vivo; settings: Q-VD-OPh i.p.; unwounded skin; vs vehicle controls
Protocol: Flow Cytometry. Cell suspensions were prepared by digesting mouse skin tissue in a cocktail consisting of Liberase TL (Roche, 5401020001), DNase I (Sigma, DN25) and antibiotics (Invitrogen, 15140) in RPMI 1640 (Gibco, 11875093). For FACS, cells were washed and first viability stained using the Zombie Aqua dye (BioLegend, 423101). […] Finally, cells were resuspended in BD stabilizing fixative prior to FACS. All flow cytometry experiments were performed on a BD LSR II and downstream analysis of data was performed using Cytobank.

ASC specks = assay: ASC speck formation in ASC-Citrine mice (in vivo FLI, PuLSA assay)
[4] = tested on: P. aeruginosa strain Xen41; assay: P. aeruginosa skin infection model; assay type: in vivo; settings: WT C57BL/6 mice; treatment at 4 hours; vs untreated
Staphopain B (sspB) = biological target: T2, Staphopain B (sspB) (Staphylococcus aureus, UniProt P0C1S6); assay: Protease activity assays and protein blot, Staphopain B; assay type: biochemical, S. aureus
T2 construct: purchased CUSABIO

mouse neutrophils = assay: Neutrophil cultures with live S. aureus ± caspase inhibitors; settings: Q-VD-OPH 10 μg/mL, live S. aureus 6 hours
[5] = tested on: monocytes, macrophages and neutrophils isolated from the infected skin; assay: Flow cytometry of single-cell suspensions from CA-MRSA-infected skin; assay type: in vivo, mice
Protocol: Flow cytometry. 10-mm skin punch biopsies were collected, minced and enzymatically digested in 3 mL RPMI containing 100 μg/mL DNaseI (Sigma-Aldrich) and 1.67 Wunsch U/ml Liberase TL (Roche) for 1 hour at 37° C. and shaken at 140 rpm. Single-cell suspensions were obtained after filtering the digested samples through a 40-μm cell filter using a 3 mL syringe plunger and cells were then washed in RPMI. […] The cells were further labeled for intracellular pMLKL, which was detected via anti-pMLKL mAb that was biotinylated with Biotin conjugation/Fast/Type A kit (Abcam), as per manufacturer's instructions, along with other intracellular mAbs against IL-1β and TNF (Supplemental Table S1). […] For immunophenotyping of Langerhans cells and monocyte-derived dendritic cells (DCs), cells were first gated on CD45^+ and then CD207^+CD103^− (Langerhans cells) and CD45^+CD11c^+CD115^+ monocyte-derived DCs (FIG. 11), modified from previously described methods (61). The absolute numbers of the respective cell populations were calculated as (Total number of live cells X [% of cell population/100]).

IL-1β = assay: Serum IL-1β levels after S. aureus skin inoculation; assay type: in vivo, mice; settings: days 1 and 3
Protocol: as §1

[6] = Q-VD-OPH treated TNF^−/− mice, day 1
[7] = Q-VD-OPH treated WT mice, day 1
[8] = TNF^−/− mice, day 1, vs untreated
[9] = WT mice, infected skin day 1, vs untreated

T1 sequence (P81297 215-388): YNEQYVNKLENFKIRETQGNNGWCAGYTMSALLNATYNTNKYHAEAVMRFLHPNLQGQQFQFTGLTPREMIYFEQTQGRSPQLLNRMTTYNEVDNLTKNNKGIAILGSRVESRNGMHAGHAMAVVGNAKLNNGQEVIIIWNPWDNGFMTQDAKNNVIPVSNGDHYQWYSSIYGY
T2 sequence (P0C1S6 220-393): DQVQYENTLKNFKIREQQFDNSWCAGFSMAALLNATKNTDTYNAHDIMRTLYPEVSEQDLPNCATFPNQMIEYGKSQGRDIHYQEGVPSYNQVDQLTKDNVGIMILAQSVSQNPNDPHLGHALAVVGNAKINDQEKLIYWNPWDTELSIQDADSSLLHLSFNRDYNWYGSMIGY
Sequence of Streptopain (speB) (P0C0J0 146-398 limits assumed): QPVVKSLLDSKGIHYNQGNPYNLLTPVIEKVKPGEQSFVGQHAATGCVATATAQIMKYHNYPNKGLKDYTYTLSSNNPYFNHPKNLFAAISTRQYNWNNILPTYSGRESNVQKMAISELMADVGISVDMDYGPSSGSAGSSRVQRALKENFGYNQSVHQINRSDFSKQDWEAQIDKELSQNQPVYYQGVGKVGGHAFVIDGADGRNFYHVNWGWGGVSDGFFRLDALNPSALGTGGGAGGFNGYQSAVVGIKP

For `CC(C)[C@H](NC(=O)c1ccc2ccccc2n1)C(=O)N[C@@H](CC(=O)O)C(=O)COc1c(F)cccc1F` [Q-VD-OPH, Quinoline-val-asp-difluorophenoxymethyl ketone], the “in vitro absorbance and bioluminescence” value (S. pyogenes strain Xen20) was “no differences in in vitro absorbance and bioluminescence”, the “in vitro absorbance and bioluminescence” value [1] was “no differences in in vitro absorbance and bioluminescence” and the “necroptosis (pMLKL and MLKL expression)” value (pMLKL, MLKL, ICAD; TNF^−/− mice, day 1, vs untreated or Q-VD-OPH treated WT mice) was “reduced necroptosis”. The “apoptosis (ICAD)” value (pMLKL, MLKL, ICAD; TNF^−/− mice, infected skin day 1) was “reduced apoptosis”, the “apoptosis (ICAD)” value (pMLKL, MLKL, ICAD; WT mice, infected skin day 1) was “reduced apoptosis” and the “necroptosis (pMLKL, MLKL)” value (pMLKL, MLKL, ICAD; WT mice, infected skin day 1) was “increases necroptosis”. The “physical conformational changes or degradation of sspP (protein blot)” value (Staphopain A (sspP); 2 hours at 37° C.) was “did not induce any physical conformational changes or cause degradation”, the “activity of sspP on gelatinase activity or elastin proteolysis” value (Staphopain A (sspP); Q-VD-OPH 10 μg/mL, 20 hours) was “did not affect the activity” and the “serum TNF protein levels” value (TNF) was “increased serum TNF protein levels”. For the same compound, the “physical conformational changes or degradation of speB (protein blot)” value (Streptopain (speB); 2 hours at 37° C.) was “did not induce any physical conformational changes or cause degradation”, the “activity of speB on gelatinase activity or elastin proteolysis” value (Streptopain (speB); 20 hours) was “did not affect the activity” and the “IL-36 receptor (IL36r) expression” value ([2]; 48 hrs treatment) was “not detected”. The “IL-36 receptor antagonist (IL-36m) protein or mRNA levels” value ([2]; 48 hrs treatment) was “No differences”, the “IL-36α mRNA” value ([2]; 48 hrs treatment) was “higher levels of IL-36α mRNA and protein” and the Tlr3 expression ([2]; 48 hrs treatment) was “again elevated”. The “caspase gene mRNA (inflammatory caspases 1 and 4)” value ([2]; 48 hrs treatment) was “compensatory mRNA increases of caspase genes”, the “IL-36α protein (whole-cell lysates)” value ([2]; mouse epithelial keratinocytes) was “higher levels of IL-36α mRNA and protein” and the “in vitro absorbance, bioluminescence and CFU (direct antibacterial activity)” value [3] was “no differences in in vitro absorbance, bioluminescence and CFU”. The “neutrophil levels in the skin” value (neutrophils) was “higher neutrophil levels in the skin”, the “in vivo ASC speck formation (in vivo FLI signals)” value (ASC specks; ASC-Citrine mice, 6 hours following Q-VD-OPH administration) was “virtually inhibited all in vivo ASC speck formation” and the “percentage of total ASC-Citrine expression in live cells” value (ASC specks; infected skin, day 1, treated vs untreated) was “not significantly different”. The “percentage of cells with ASC-Specks (PuLSA assay)” value (ASC specks; infected skin, day 1, vs untreated) was “substantially reduced percentage of cells with ASC-Specks”, the “bacterial burden (in vivo BLI)” value [4] was “modest but significantly decreased” and the skin lesion sizes [4] was “modest but significantly decreased skin lesion sizes”. The “physical conformational changes or degradation of sspB (protein blot)” value (Staphopain B (sspB); 2 hours at 37° C.) was “did not induce any physical conformational changes or cause degradation”, the “activity of sspB on gelatinase activity or elastin proteolysis” value (Staphopain B (sspB); Q-VD-OPH 10 μg/mL, 20 hours) was “did not affect the activity” and the “necroptosis (western blot for pMLKL and MLKL)” value (mouse neutrophils) was “necroptosis was increased”. For the same compound, the “percentages of TNF+ neutrophils” value (mouse neutrophils; Emricasan 9 μg/mL) was 25.47%, the “viable cells (Zombie UV negative cells)” value (mouse neutrophils; Emricasan 9 μg/mL, no significant differences vs no treatment) was about 50% and the “pMLKL+ MFI” value [5, 6] was 540. For the same compound, the “pMLKL+ total cells, absolute numbers” value [5, 6] was 1.5×10^4 cells, the “pMLKL+ total cells, percentage” value [5, 6] was 15% and the “pMLKL+ MFI” value [5, 7] was 2250. The “pMLKL+ total cells, absolute numbers” value [5, 7] was 1.0×10^5 cells, the “pMLKL+ total cells, percentage” value [5, 7] was 81% and the “percentages and absolute number of macrophages” value ([5]; TNF^−/− mice, day 1) was “statistically increased”. The “percentages and absolute number of monocytes” value ([5]; TNF^−/− mice, day 1, compared with Q-VD-OPH treated WT mice) was “no increase”, the “necroptosis (pMLKL+) total leukocytes: MFI, percentages and absolute numbers” value ([5]; TNF^−/− mice, day 1, vs TNF^−/− untreated) was “significantly greater” and the “early apoptotic (Annexin V+) neutrophils” value [5, 8] was “significantly decreased”. The “early apoptotic cells (Annexin V+) of total leukocytes” value [5, 8] was “significantly decreased”, the “percentages and absolute number of neutrophils” value ([5]; TNF^−/− mice, infected skin day 1, vs untreated or Q-VD-OPH treated WT mice) was “significantly reduced” and the “intracellular pro-IL-1β: MFI and percentages of total leukocytes (CD45+pro-IL-1β+)” value ([5]; WT mice, day 1, especially macrophages and neutrophils but not monocytes) was “increased mean fluorescence intensity (MFI) and percentages of total leukocytes”. The “TNF+ macrophages” value ([5]; WT mice, day 1, vs untreated) was “significantly greater”, the “TNF+ monocytes” value ([5]; WT mice, day 1, vs untreated) was “significantly greater” and the “TNF+ neutrophils” value ([5]; WT mice, day 1, vs untreated) was “significantly greater”. The “TNF+ total leukocytes (CD45+TNF+): MFI, percentages and absolute number” value ([5]; WT mice, day 1, vs untreated) was “significantly greater”, the “early apoptotic (Annexin V+) monocytes, percentages and absolute numbers” value ([5]; WT mice, day 1, vs untreated) was “significantly decreased” and the “early apoptotic (Annexin V+) neutrophils, percentages and absolute numbers” value ([5]; WT mice, day 1, vs untreated) was “significantly decreased”. For the same compound, the “early apoptotic cells (Annexin V+) of total leukocytes, percentages and absolute numbers” value ([5]; WT mice, day 1, vs untreated) was “significantly decreased”, the “necroptosis (pMLKL+) macrophages” value ([5]; WT mice, day 1, vs untreated) was “significantly greater” and the “necroptosis (pMLKL+) total leukocytes: MFI, percentages and absolute numbers” value ([5]; WT mice, day 1, vs untreated) was “significantly greater”. For the same compound, the “percentages and absolute numbers of neutrophils” value [5, 9] was “no differences”, the percentages of macrophages [5, 9] was “statistically increased” and the percentages of monocytes [5, 9] was “statistically increased”. The “serum levels of IL-1β” value (IL-1β) was “decreased serum levels of IL-1β”.
